Active and inactive are the calls of the source. How the calls were made is not given here.
Assay: NCOA3 reporter inhibition potency – cell-based, luminescence, counter-screen for SRC1 inhibitor project, dose response (AID 602234);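 further: HEK293 cells co-transfected with pGL4.31 reporter and pBIND-SRC3 fusion vector; potency for inhibition of reporter luminescence with Gossypol as full inhibition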
Details: transfected HEK293 cells, counter-screen luciferase reporter
`O=C(c1ccncc1)N(Cc1cc2ccccc2[nH]c1=O)C1CCCCC1` gave an IC50 of 5.34 µM. Compound `O=C1CCC2S/C(=C/Nc3ccc(C(F)(F)F)cc3)C(=O)N12` (stereo not given) has an IC50 of 7.25 µM. `CN(C)C=Nc1c(C(=O)c2ccccc2)sc2nccc(N(C)C)c12` showed an IC50 of 6.82 µM. In the case of `COc1ccc(OC)c(/C=C2\NC(=O)NC2=O)c1`, the IC50 is reported as 5.99 µM. In the case of `C=CCc1ccccc1OCC(=O)N/N=C/c1ccc(OC(C)=O)cc1OC(C)=O`, the IC50 is reported as 22.4 µM (inactive). For `CN(C)C(=O)c1ccc(-c2n[nH]c(=O)c3ccccc23)cc1`, the IC50 was 5.67 µM. With `Oc1ccc(C=NNc2ccccn2)c(O)c1` the IC50 was 6.53 µM. `O=C(CCl)N(c1ccccc1)C1CCS(=O)(=O)C1` (stereo not given) gave an IC50 of 1.74 µM. For `COc1ccccc1NS(=O)(=O)c1cccc(NC(=O)c2cncc(Br)c2)c1`, the IC50 was 7.71 µM. `CC1CC(C)C(=NNC(N)=O)C(C(O)CC2CCC(=O)NC2=O)C1` (stereo not given) gave an IC50 of 7.99 µM. For `CCOc1cccc(/C=N/NC(=O)c2cccnc2)c1O`, the IC50 was 9.67 µM. In the case of `O=C(N/N=C/c1ccccc1O)/C(=C/c1ccccc1)CCO`, the IC50 is reported as 5.52 µM. For `CCC(C)(C)n1nnnc1CN1CCC(n2c(C)nc3cc(C(F)(F)F)ccc32)CC1`, the IC50 was > 35.9 µM (inactive). In the case of `Cc1cccn2c(=O)c3cc(C(=O)NCCN4CCOCC4)c(=N)n(Cc4cccnc4)c3nc12`, the IC50 is reported as 12.7 µM (inactive). For `CCCCC(CC)COCCCN=Cc1c(O)[nH]c(=S)[nH]c1=O` (stereo not given), the IC50 was 5.74 µM. `O=C(COC(=O)c1ccc[nH]c1=O)Nc1ccc(N2CCCCC2)cc1` gave an IC50 of 5.35 µM. For `CS(=O)(=O)Nc1cccc(NC(=O)C2Cc3c(-c4ccco4)ccnc3O2)c1` (stereo not given), the IC50 was > 12 µM (inactive). Compound `Cc1nc2ccccn2c1-c1ccnc(=S)[nH]1` has an IC50 of 4.25 µM. Work on `Cc1ccc(NC(=O)NC2CC(=O)N(c3ccc4c(c3)OCCO4)C2)cc1C` (stereo not given) yielded an IC50 of 1.08 µM. With `NC(=S)NN=Cc1nccc2ccccc12` the IC50 was 0.434 µM. In the case of `O=C(N/N=C/c1cc([N+](=O)[O-])ccc1O)c1cccc(N2CCCC2=O)c1`, the IC50 is reported as > 12 µM (inactive). With `O=C(Nc1cccc2c1CCCC2)c1cc([N+](=O)[O-])ccc1Cl` the IC50 was 3.47 µM. With `O=C(CCCOc1ccc(Cl)cc1Cl)N/N=C/c1ccccc1O` the IC50 was 6.32 µM. With `CC(=O)NC(c1cc(Cl)c2cccnc2c1O)C(C)C` (stereo not given) the IC50 was 6.32 µM. For `CCc1ccc(-c2nc(CSCC(=O)NCc3ccco3)c(C)o2)cc1`, the IC50 was 6.43 µM. Work on `COc1ccc(/C=C2\CC/C(=C\c3ccc(OC)c(OC)c3)C2=O)cc1OC` yielded an IC50 of 5.96 µM. `COc1cccc(/C=N/NC(=O)CNC(=O)C2COc3ccccc3O2)c1O` (stereo not given) gave an IC50 of 4.31 µM. `CCc1nc(N)nc(N)c1-c1ccc(Cl)c([N+](=O)[O-])c1` showed an IC50 of 0.95 µM. In the case of `COc1ccc(-c2cnc(N)nc2-c2ccc(OC)cc2O)cc1`, the IC50 is reported as 7.07 µM. In the case of `CCC(=O)c1ccc(Oc2nc3c(c(=O)n(C)c(=O)n3C)n2CC)cc1`, the IC50 is reported as 2.87 µM. In the case of `Cc1ccc(S(=O)(=O)N2[C@@H](c3ccc(C(C)(C)C)cc3)C(C(=O)O)=CC[C@H]2c2ccc(Cl)cc2)cc1`, the IC50 is reported as 10.4 µM (inactive). With `COc1ccc2c(=O)cc(-c3ccncc3)oc2c1OC` the IC50 was 3.16 µM. In the case of `COc1ccccc1/C=C\C(=O)NCC(=O)N/N=C/c1cccc(OC)c1O`, the IC50 is reported as 12.9 µM (inactive). In the case of `CCOC(=O)CSc1cc(-c2ccccc2)nc2ncnn12`, the IC50 is reported as > 35.9 µM (inactive). Compound `CC(=O)/C(N=Nc1ccc2c(c1)OCCO2)=C(\C)O` has an IC50 of 3.11 µM. With `Cc1ccc(S(=O)(=O)Nc2c(NC3CCCCC3)c3ccccc3oc2=O)c(C)c1` the IC50 was 23.1 µM (inactive). For `O=[N+]([O-])c1cccc2c1ccc1ncccc12`, the IC50 was 10.3 µM (inactive). `O=C(N/N=C/c1coc2ccc(Cl)cc2c1=O)c1ccc(O)cc1` gave an IC50 of 3.61 µM. Compound `CC(=O)NC(c1cc(Cl)c2cccnc2c1O)C1CC1` (stereo not given) has an IC50 of 6.13 µM. For `Cc1ccc2occ(/C=N/NC(=O)[C@@H](N)Cc3ccccc3)c(=O)c2c1`, the IC50 was 6.9 µM. In the case of `O=C(NC(=S)Nc1ccc(N2CCN(C(=O)c3ccccc3)CC2)cc1)c1cccs1`, the IC50 is reported as 7.01 µM. With `Cc1cc(=O)[nH]c(Nc2cccc(Br)c2)n1` the IC50 was 6.81 µM. Work on `COc1ccc(NC(=O)CN(C)C(=O)C2(c3ccccc3)CCCC2)cc1` yielded an IC50 of 5.39 µM. `O=C(Nc1ccncc1)c1ccccc1[N+](=O)[O-]` showed an IC50 of 4.77 µM. `CCCCCOc1ccc(/C=C/c2c([N+](=O)[O-])c(=O)n(C)c(=O)n2C)cc1` gave an IC50 of 4.32 µM. With `O=C(CCC1CCCC1)Nc1ccc(C(=O)NCc2cccnc2)cc1` the IC50 was 34.2 µM (inactive). For `COc1ccc(CNc2ncc(-c3ccc(F)cc3)n2C)c2ccccc12`, the IC50 was 11.6 µM (inactive). `COc1cc(C(=O)NC(=S)NNC(=O)c2cnccn2)cc(OC)c1OC` gave an IC50 of 3.58 µM. Compound `N#Cc1cc2ccncc2c2ccccc12` has an IC50 of 4.76 µM. `N#Cc1c2ccc(O)cc2n2ccccc12` showed an IC50 of 1.38 µM. With `COc1ccc2c(C#N)c3ccccn3c2c1` the IC50 was 11.2 µM (inactive). For `O=C1CCC/C1=c1\s/c(=C/c2cccnc2)c(=O)n1-c1ccccc1`, the IC50 was 6.2 µM. With `Cc1sc2ncnc(N3CCC(C(=O)Nc4cc(S(C)(=O)=O)ccc4Cl)CC3)c2c1C` the IC50 was 10.1 µM (inactive). In the case of `CC(C)(C)NC(=O)C1(C)CCC(=O)N1CCCn1ccnc1` (stereo not given), the IC50 is reported as 4.51 µM. In the case of `CCn1c2ccccc2c2cnc(N=CN(C)C)c(C#N)c21`, the IC50 is reported as 11.3 µM (inactive).

— PubChem BioAssay AID602234 (The Scripps Research Institute Molecular Screening Center, 2012)
